Reference: patent publication US9872858B2, “Treatment of degenerations and light-induced damage to the retina” (BIOCODEX, priority 2014, dated 2018)
Read-outs that look alike come from different tables or passages of the source.

Tests used:
[1] = tested on: light-induced degeneration of the retina in rats; conditions: intraperitoneal injection (Ranchon et al. 2001); cited from earlier work
[2] = tested on: blue light-induced retinal degenerations or damages in rats; experiment: Scotopic electroretinogram (amplitude of wave a) after blue light-induced retinal degeneration; assay type: in vivo, Sprague-Dawley albino male rats
Procedure: (§1) This animal model is particularly representative, in addition to light-induced retinal damage, of age-related macular degeneration (AMD) and retinitis pigmentosa (see e.g Feng et al. (2012) International Journal of Ophthalmology 5:151-157).
72 Sprague-Dawley albino male rats obtained from Janvier were used for the study. When received, the rats were approximately 7 weeks old and weighed 180-200 g,
(§2) Induction was performed by exposure during 6 hours to a blue fluorescent light of 400 nm-540 nm wavelength in individual cages. The rats were kept in the dark for 36 hours prior to the induction and 24 hours after the induction, before returning to normal lighting conditions.
A scotopic electroretinogram (ERG) was performed by using the electrophysiological RETI-animal® (Roland Consult) system before the first administration (base) then on days 7 and 14 on both eyes of animals accustomed to the darkness. The animals were anesthetized with an intramuscular injection of a mixture of ketamine/xylazine. 15 minutes before the measurement, 1 drop of Mydriatictum® (0.5% tropicamide) was instilled to induce dilatation of the pupil. The amplitudes of wave a and wave b were measured for each eye and expressed as a percentage of the base amplitudes.
The ERG parameters are: • Gansfeld Q450C • Color: maximum white • Maximum intensity: 2.6 cd.s/m^2 (0 dB); duration: 0.24 ms; number of flashes: 1 • Filter: 50 Hz • Impedance threshold: 90 kΩ
A two-factor ANOVA test was applied to the average amplitudes of the wave a of both eyes for each measurement point. The effect of the products was determined using the Turkey's multiple comparison test; each group was compared to other groups. Differences were considered significant for p values less than 0.05.
Electroretinograms (ERG) allow to measure the amplitude of wave a, which results from the photo-activated hyperpolarization of photoreceptors. Thus, a reduction of the amplitude of wave a is an indicator of a retinal damage or degeneration associated with exposure to blue light.

[3] = tested on: blue light-induced retinal degenerations or damages in rats; experiment: Thickness of the outer nuclear layer (histology, AUC) after blue light-induced retinal degeneration; assay type: in vivo, Sprague-Dawley albino male rats
Procedure: as §1, with “The inventors have studied the protective effect of etifoxine in respect of the blue light-induced retinal degenerations or damages in rats. This” for “This”
as §2
After ERG (day 14), the animals were euthanized with an overdose of pentobarbital, according to European recommendations, both eyes were enucleated, fixed with Bouin Hollande solution and then included in paraffin. Sections of 5 to 7 μm of thickness were made along the vertical meridian then stained using Masson's trichrome. The vertical meridian includes the optic nerve. […] The area under the curve (AUC) was then calculated for each retina.
A one-factor ANOVA test was applied to the average AUCs of the thickness of the outer nuclear layer. The effect of the products was determined using a Turkey's multiple comparison test; each treated group was compared to vehicle group. Differences were considered significant for p values less than 0.05.
To determine if the treatment allows to preserve the structure of photoreceptors, the thickness of the outer nuclear layer was evaluated 14 days other exposure to blue light. The area under the curve (AUC) of the thickness of the outer nuclear layer was calculated for each eye and both AUCs were averaged for each rat.

[4] = tested on: patients suffering from neovascular (exudative) AMD; conditions: cited from earlier work
[5] = Animals behavior and body weight; assay type: in vivo, Sprague-Dawley albino male rats; conditions: etifoxine 12.5-50 mg/kg i.p. once a day D-7 to D0
From the text: The rats were kept under observation for 3 weeks after their arrival for acclimatization. Meanwhile the animals were observed daily for verifying the absence of a disease.
II.1. Animals Behavior and Body Weight

Molecule: CC(C)(C)[N+]([O-])=Cc1ccccc1 [PBN, Phenyl-N-tert-butylnitrone]
- Action in light-induced degeneration of the retina [1]: protective action
- Amplitude of wave a (mean ± standard deviation), Day 7 ([2]; PBN 50 mg/kg i.p. at D0, 0.5 h before, 2 h and 4 h during and just after induction, 7 days after induction): 334 ± 137 μV
- Average relative amplitude of wave a, Day 7 ([2]; PBN 50 mg/kg i.p. at D0 around induction, 7 days after induction, percentage of base amplitude): 71 ± 29%
- Amplitude of wave a (mean ± standard deviation), Day 14 ([2]; PBN 50 mg/kg i.p. at D0 around induction, 14 days after induction): 301 ± 187 μV
- Average relative amplitude of wave a, Day 14 ([2]; PBN 50 mg/kg i.p. at D0 around induction, 14 days after induction, percentage of base amplitude): 62 ± 38%
- Amplitudes of wave a compared to the NaCl 0.9% group ([2]; PBN 50 mg/kg, days 7 and 14, p<0.0001): significantly (p<0.0001) higher
- Thickness of the outer nuclear layer (AUC, mean of both eyes ± standard deviation) ([3]; PBN 50 mg/kg i.p. at D0 around induction, 14 days after induction, p < 0.0001 vs NaCl 0.9% group): 247 ± 44 (p < 0.0001 comparing to NaCl 0.9% group) μm × mm
- Protection of the outer nuclear layer from damages or degenerations induced by blue light ([3]; PBN 50 mg/kg, positive control, in contrast to 0.9% NaCl): protects the outer nuclear layer

Molecule: ranibizumab: a Fab fragment of an anti-VEGF-A monoclonal antibody
- Visual acuity improvement ([4]; 0.3 mg monthly intravitreal injections): +8.1 letters
- Visual acuity improvement ([4]; 0.5 mg monthly intravitreal injections): +10.7 letters

Molecule: CCNC1=Nc2ccc(Cl)cc2C(C)(c2ccccc2)O1.Cl (centres unmarked) [EFX, 6-chloro-2-ethylamino-4-methyl-4-phenyl-4H-[3,1]benzoxazine hydrochloride]
- Protection of amplitude of wave a compared to the vehicle group ([2]; 12.5, 25 and 50 mg/kg, day 7 p<0.0001 all doses, day 14 p=0,016 for 12.5 mg/kg, p<0.0001 for 25 and 50 mg/kg): significant dose-dependent protection
- Amplitude of wave a (mean ± standard deviation), Day 7 ([2]; EFX 12.5 mg/kg i.p. once a day D-7 to D0, 7 days after induction): 136 ± 89 μV
- Amplitude of wave a (mean ± standard deviation), Day 14 ([2]; EFX 12.5 mg/kg i.p. once a day D-7 to D0, 14 days after induction): 134 ± 135 μV
- Amplitude of wave a (mean ± standard deviation), Day 7 ([2]; EFX 25 mg/kg i.p. once a day D-7 to D0, 7 days after induction): 210 ± 116 μV
- Amplitude of wave a (mean ± standard deviation), Day 7 ([2]; EFX 50 mg/kg i.p. once a day D-7 to D0, 7 days after induction): 260 ± 87 μV
- Thickness of the outer nuclear layer (AUC, mean of both eyes ± standard deviation) ([3]; EFX 12.5 mg/kg i.p. once a day D-7 to D0, 14 days after induction, p = 0.04 vs vehicle group): 170 ± 72 (p = 0.04 comparing to vehicle group) μm × mm
- Thickness of the outer nuclear layer (AUC, mean of both eyes ± standard deviation) ([3]; EFX 25 mg/kg i.p. once a day D-7 to D0, 14 days after induction, p = 0.0002 vs vehicle group): 200 ± 73 (p = 0.0002 comparing to vehicle group) μm × mm
- Thickness of the outer nuclear layer (AUC, mean of both eyes ± standard deviation) ([3]; EFX 50 mg/kg i.p. once a day D-7 to D0, 14 days after induction, p = 0.035 vs vehicle group): 172 ± 61 (p = 0.035 comparing to vehicle group) μm × mm
- Protection of the outer nuclear layer from damages or degenerations induced by blue light, compared to the vehicle ([3]; regardless of the dose (12.5, 25, 50 mg/kg), 14 days after induction): protects significantly
- Clinical signs after administration [5]: No unexpected clinical signs
